The source made the active and inactive calls. The calls are words filed in the database; no cut-off is given here. Bounds are passed on as bounds.

The record followed here is ChEMBL document CHEMBL3826909, “Quinoxaline-based inhibitors of Ebola and Marburg VP40 egress” (Bioorg Med Chem Lett, 2016).

Data set [1] concerns the target T1, Matrix protein VP40 (Lake Victoria marburgvirus (strain Ravn-87) (MARV) (Marburg virus (strainKenya/Ravn/1987))) (UniProt Q1PDC8).
T1 sequence (whole entry): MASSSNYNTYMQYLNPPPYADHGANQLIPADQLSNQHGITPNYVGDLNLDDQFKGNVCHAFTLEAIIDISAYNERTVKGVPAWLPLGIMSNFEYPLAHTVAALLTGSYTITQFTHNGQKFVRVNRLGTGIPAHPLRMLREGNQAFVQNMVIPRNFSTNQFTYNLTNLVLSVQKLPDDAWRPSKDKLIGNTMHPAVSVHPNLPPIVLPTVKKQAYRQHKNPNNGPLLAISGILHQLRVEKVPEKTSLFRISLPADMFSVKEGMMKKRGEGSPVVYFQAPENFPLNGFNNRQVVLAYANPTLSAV
The experiment in a line: Inhibition of Marburg virus VP40 PPxY L-domain motif expressed in HEK293T cells assessed as reduction in VLP budding at 0.1 uM relative to control. The settings on record: HEK-293T. Type of data set: cell-based.

For data set [2], the target named is T1, Matrix protein VP40 (Lake Victoria marburgvirus (strain Ravn-87) (MARV) (Marburg virus (strainKenya/Ravn/1987))). Kind of data set: Inhibition of Marburg virus VP40 PPxY L-domain motif expressed in HEK293T cells assessed as reduction in VLP budding at 1 uM relative to control. Type of data set: cell-based. The settings on record: HEK-293T.
The target is the same in data set [3]. The experiment in a line: Inhibition of Marburg virus VP40 PPxY L-domain motif expressed in HEK293T cells assessed as reduction in VLP budding at 0.03 uM relative to control. Type of data set: cell-based. The note with it: HEK-293T.
Data set [4] has the same target. The experiment in a line: Inhibition of Marburg virus VP40 PPxY L-domain motif expressed in HEK293T cells assessed as reduction in VLP budding at 0.3 uM relative to control. Format: cell-based. The note with it: HEK-293T.
In data set [5] the test system is Liver microsome. Kind of data set: Half life in human liver microsomes. Format: ADME. On the technique in general: Liver microsomes are a subcellular fraction often used to study metabolism.
Data set [6] is described as follows: Half life in mouse liver microsomes. Type of data set: ADME.
Data set [7] deals with Cytochrome P450 3A4 (Homo sapiens, UniProt P08684). Kind of data set: Inhibition of CYP3A4 (unknown origin) using midazolam as substrate. Type of data set: ADME.
The test system of data set [8] is Liver microsome. The experiment in a line: Intrinsic clearance in human liver microsomes assessed per mg of protein. Format: ADME.
For data set [9], the target named is T1, Matrix protein VP40 (Lake Victoria marburgvirus (strain Ravn-87) (MARV) (Marburg virus (strainKenya/Ravn/1987))). The experiment in a line: Inhibition of Marburg virus VP40 PPxY L-domain motif expressed in HEK293T cells assessed as reduction in VLP budding at 30 nM after 24 hrs by Western blot analysis relative to control. Format: cell-based. The settings on record: HEK-293T. On the technique in general: In western blotting, separated proteins are transferred to a membrane and probed.

Data set [10] has the same target. The experiment in a line: Inhibition of Marburg virus VP40 PPxY L-domain motif expressed in HEK293T cells assessed as reduction in VLP budding at 100 nM after 24 hrs by Western blot analysis. Type of data set: cell-based. The note with it: HEK-293T.
Data set [11] can be described thus: Cytotoxicity against human HEK293T cells assessed as cell viability at 10 uM after 24 hrs by MTT assay relative to control. Type of data set: cell-based, HEK-293T. The settings on record: read-out: Activity. For orientation: Tetrazolium assays rely on reduction of a dye to a coloured formazan, in cell work by metabolically active cells.
A short description of data set [12]: Cytotoxicity against human HEK293T cells assessed as cell viability at 0.01 uM after 24 hrs by MTT assay relative to control. The settings on record: read-out: Activity. Format: cell-based, HEK-293T.
Data set [13] is described as follows: Cytotoxicity against African green monkey Vero E6 cells assessed as cell viability at 0.01 uM after 24 hrs by MTT assay relative to control. Type of data set: cell-based. The note with it: chlorocebus sabaeus, read-out: Activity.
Data set [14] in a line: Cytotoxicity against African green monkey Vero E6 cells assessed as cell viability at 0.1 uM after 24 hrs by MTT assay relative to control. The settings on record: chlorocebus sabaeus, read-out: Activity. Type of data set: cell-based.
Data set [15] has as its target T1, Matrix protein VP40 (Lake Victoria marburgvirus (strain Ravn-87) (MARV) (Marburg virus (strainKenya/Ravn/1987))). Kind of data set: Inhibition of Marburg virus VP40 PPxY L-domain motif-Nedd4 interaction in HEK293T cells coexpressing NYFP-Nedd4 and CYFP-mVP40 at 0.1 uM by inverted confocal microscopy based bimolecular complementation assay. The settings on record: HEK-293T. Type of data set: cell-based.

The nature of data set [16]: Cytotoxicity against African green monkey Vero E6 cells assessed as cell viability at 1 uM after 24 hrs by MTT assay relative to control. Format: cell-based. The note with it: chlorocebus sabaeus, read-out: Activity.
A short description of data set [17]: Cytotoxicity against human HEK293T cells assessed as cell viability at 0.1 uM after 24 hrs by MTT assay relative to control. Type of data set: cell-based, HEK-293T. The note with it: read-out: Activity.
Data set [18] can be described thus: Cytotoxicity against human HEK293T cells assessed as cell viability at 1 uM after 24 hrs by MTT assay relative to control. Format: cell-based, HEK-293T. The note with it: read-out: Activity.
Data set [19] in a line: Cytotoxicity against African green monkey Vero E6 cells assessed as cell viability at 10 uM after 24 hrs by MTT assay relative to control. Type of data set: cell-based. The note with it: chlorocebus sabaeus, read-out: Activity.

Sequence of Cytochrome P450 3A4 (P08684 whole entry): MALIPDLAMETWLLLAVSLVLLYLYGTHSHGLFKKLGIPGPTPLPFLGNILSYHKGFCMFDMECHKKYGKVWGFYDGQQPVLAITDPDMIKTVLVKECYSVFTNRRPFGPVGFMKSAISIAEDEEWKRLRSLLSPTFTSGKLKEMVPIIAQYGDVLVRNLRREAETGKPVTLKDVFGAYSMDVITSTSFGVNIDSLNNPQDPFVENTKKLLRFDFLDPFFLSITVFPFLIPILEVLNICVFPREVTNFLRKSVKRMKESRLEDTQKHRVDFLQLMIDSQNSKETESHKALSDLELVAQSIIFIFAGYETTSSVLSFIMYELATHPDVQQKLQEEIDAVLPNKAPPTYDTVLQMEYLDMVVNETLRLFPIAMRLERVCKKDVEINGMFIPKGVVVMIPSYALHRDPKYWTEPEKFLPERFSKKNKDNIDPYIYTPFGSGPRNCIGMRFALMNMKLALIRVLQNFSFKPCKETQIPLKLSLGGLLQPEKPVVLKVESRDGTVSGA

For `Cc1ccc(F)cc1NC(=O)NC(=O)CSc1nc2ccccc2nc1C`, the inhibition in [1] came to 89%.
Turning to `Cc1nc2ccccc2nc1SCC(=O)NC(=O)N(C)c1ccccc1`, the inhibition entry in data set [2] is “inactive”.
On to `CCc1ccc(C)nc1NC(=O)NC(=O)CSc1nc2ccccc2nc1C`, for which the inhibition in data set [3] came to 48%.
Regarding `Cc1c(F)cccc1NC(=O)NC(=O)CSc1nc2ccccc2nc1C(F)(F)F`, the inhibition result in data set [1] is “inactive”.
As to `O=C(CSc1cnc2ccccc2n1)NC(=O)Nc1ccccc1F`, the inhibition entry in data set [2] was “inactive”.
As to `Cc1cccnc1NC(=O)NC(=O)CSc1nc2ccccc2nc1C`, the inhibition in [1] came out at 45%.
Turning to `Cc1nc2ccccc2nc1SCC(=O)NC(=O)Nc1cc(Cl)ccc1Cl`, the inhibition in data set [3] came out at 37%.
Consider `CCc1nc2ccccc2nc1SCC(=O)NC(=O)Nc1ccccc1Cl`, for which the inhibition entry in [1] was “inactive”.
In the case of `Cc1nc2ccccc2nc1SCC(=O)NC(=O)N1CCc2ccccc21`, in data set [2], the inhibition entry is “inactive”.
As to `Cc1nc2ccccc2nc1SCC(=O)NC(=O)Nc1cccnc1`, the inhibition in [2] stood at 78%; in [1] it was 44%.
With `Cc1nc2ccccc2nc1SCC(=O)NC(=O)Nc1c(C)nn(-c2ccccc2)c1C`, in data set [2], the inhibition result is “inactive”.
`Cc1ccccc1NC(=O)NC(=O)COc1nc2ccccc2nc1C`: the inhibition in [4] came to 100%; in data set [2], 100%; in data set [1] it was 58%.
As to `COc1ccccc1NC(=O)NC(=O)CSc1nc2ccccc2nc1C`, the results for the inhibition in data set [4], in [2] and in data set [1] were 89%, 96% and 60%, respectively. In [3], the inhibition result was “inactive”.
In the case of `Cc1ccc(C)c(NC(=O)NC(=O)CSc2nc3ccccc3nc2C)c1`, the figures for the t1/2 in data set [5] and in [6] were 77.2 min and 1.9 min, respectively. Moreover, the inhibition in data set [4] is 100%; in data set [3], 68%. The IC50 in [7] was over 33 µM. In [8], this compound displayed an Intrinsic clearance of 0.71 mL/min.
Consider `Cc1nc2ccccc2nc1SCC(=O)NC(=O)Nc1cccc(C#N)c1`, for which, in data set [2], the inhibition was 72%.
For `Cc1nc2ccccc2nc1SCC(=O)NC(=O)Nc1ccccn1`, in [2], the inhibition stood at 80%. The inhibition entry in data set [1] is “inactive”.
On to `COc1ccc(NC(=O)NC(=O)CSc2nc3ccccc3nc2C)cc1`, for which the results for the inhibition in [3], in data set [2] and in [1] were 25%, 100% and 99%, respectively.
`Cc1cccc(NC(=O)NC(=O)CSc2nc3ccccc3nc2C)c1`: the figures for the inhibition in data set [4] and in data set [2] were 71% and 100%, respectively. Further, the inhibition result in data set [3] and in data set [1] was “inactive” in each case.
For `Cc1ncccc1NC(=O)NC(=O)CSc1nc2ccccc2nc1C`, the inhibition in [1] worked out at 41%.
Take `CCc1nc2ccccc2nc1SCC(=O)NC(=O)Nc1cccc(F)c1C`: the t1/2 came out at 31.3 min in [5] and 54.8 min in data set [6]. In addition, the inhibition result in data set [4] and in [1] was “inactive” throughout. Besides, the inhibition in data set [2] amounted to 67%.
As to `Cc1cccc(C)c1NC(=O)NC(=O)CSc1nc2ccccc2nc1C`, the inhibition in [4] was 100%. Further, the inhibition result in data set [3] is “inactive”.
In the case of `Cc1nc2ccccc2nc1SCC(=O)NC(=O)Nc1cccc(F)c1`, the inhibition in data set [2] was determined as 41%.
Consider `Cc1cccc(NC(=O)NC(=O)CSc2nc3ccccc3nc2C)c1C`, for which the inhibition in data set [4] worked out at 98%; in data set [3] it was 41%.
Take `COc1cccc(NC(=O)NC(=O)CSc2nc3ccccc3nc2C)c1`: the inhibition in data set [4] turned out to be 98%; in data set [2] it was 100%; in [1] it was 60%. Further, in data set [3], the inhibition result is “inactive”.
Turning to `Cc1nc2ccccc2nc1SCC(=O)NC(=O)Nc1c(C)nn(C)c1C`, the inhibition in data set [2] is 64%.
Take `Cc1ccc(NC(=O)NC(=O)COc2nc3ccccc3nc2C)cc1`: the inhibition in data set [1] was 70%.
`Cc1nc2ccccc2nc1SCC(=O)NC(=O)Nc1cccc(Cl)c1`: the inhibition in data set [4] amounted to 49%.
`O=C(CSc1nc2ccccc2nc1Cc1ccccc1)NC(=O)Nc1ccc(F)cc1`: the inhibition result in data set [2] is “inactive”.
In the case of `Cc1ccc(NC(=O)NC(=O)CSc2nc3ccccc3nc2C)nc1`, in data set [1], the inhibition turned out to be 96%.
Take `Cc1cc(C)cc(NC(=O)NC(=O)CSc2nc3ccccc3nc2C)c1`: the inhibition in data set [4] came to 100%; in [3] it was 44%.
In the case of `O=C(CSc1nc2ccccc2nc1C(F)(F)F)NC(=O)Nc1ccccc1Cl`, the t1/2 in [5] is on record as 71.7 min; in data set [6], 49.9 min. For the same compound, the inhibition result in data set [4], in data set [2] and in [1] was “inactive” throughout. In data set [7], this compound returned an IC50 of over 33 µM. Further, the Intrinsic clearance in [8] stood at 0.77 mL/min.
As for `Cc1ccc(NC(=O)NC(=O)CSc2nc3ccccc3nc2C)cc1C`, the values for the inhibition in [4] and in [3] were 97% and 29%, respectively.
For `Cc1nc2ccccc2nc1SCC(=O)NC(=O)Nc1ccccc1C#N`, the inhibition in data set [2] amounted to 87%.
`Cc1ccc(NC(=O)NC(=O)CSc2nc3ccccc3nc2C)cn1`: the inhibition in data set [1] was 87%.
Consider `Cc1nc2ccccc2nc1SCC(=O)NC(=O)Nc1ccc(F)cc1`, for which the inhibition in [2] turned out to be 80%.
For the compound `Cc1nc2ccccc2nc1SCC(=O)NC(=O)Nc1ccc(Cl)cc1`, in data set [1], the inhibition is 82%.
Consider `Cc1ccccc1NC(=O)NC(=O)CSc1nc2ccccc2nc1C`, for which the fold change (FC) in data set [9] came to 3. In [5], the t1/2 is 46.6 min. Further, the inhibition in data set [10] was over 90%; in [3], 83%; in [2], 100%; in data set [1], 98%. The figures for the viability at 24 h, 10 µM in [11] and in [19] were 60.5% and 61.7%, respectively. The viability at 24 h, 0.01 µM in data set [12] amounted to 98.6%; in data set [13] it was 96.8%. For the same compound, the viability at 24 h, 0.1 µM amounted to 92.3% in [14] and 71.7% in data set [17]. In data set [15], the inhibition entry was “Active”. This compound gave an IC50 in data set [7] of over 33 µM. The viability at 24 h, 1 µM was 71.2% in data set [16] and 62.8% in data set [18].
As for `Cc1nc2ccccc2nc1SCC(=O)NC(=O)NCc1cccs1`, the inhibition in data set [2] is 97%. Moreover, the inhibition entry in [1] was “inactive”.
For `Cc1nc2ccccc2nc1SCC(=O)NC(=O)Nc1cc[nH]n1`, in data set [2], the inhibition result is “inactive”.
In the case of `Cc1ccncc1NC(=O)NC(=O)CSc1nc2ccccc2nc1C`, the inhibition in [1] turned out to be 85%.
In the case of `Cc1ccc(NC(=O)NC(=O)CSc2nc3ccccc3nc2C)c(C)c1`, the inhibition in data set [4] was found to be 100%; in data set [3], 62%.
`Cc1nc2ccccc2nc1SCC(=O)NC(=O)Nc1ccccc1F`: the inhibition in [4] turned out to be 100%; in [2], 100%; in data set [1] it was 98%. In data set [3], the inhibition entry was “inactive”.
Consider `Cc1nc2ccccc2nc1SCC(=O)NC(=O)NCc1ccccc1`, for which the values for the inhibition in data set [2] and in data set [1] were 60% and 29%, respectively.
Turning to `Cc1nc2ccccc2nc1SCC(=O)NC(=O)Nc1c(C)n[nH]c1C`, the inhibition in [2] was 50%.
Still for that read-out and setting: under `Cc1nc2ccccc2nc1S(=O)(=O)CC(=O)NC(=O)Nc1ccc(F)cc1` stands “inactive”; under `Cc1nc2ccccc2nc1SCC(=O)N(C)C(=O)Nc1ccccc1F`, “inactive”.

By inhibition is commonly meant the relative decrease from the control value, in per cent. The IC50 is the concentration that inhibits the measured activity by half.
